Reference: patent publication US7812183B2, “Benzopyran derivatives as potassium channel openers” (Janssen Pharmaceutica NV, priority 2005, dated 2010)

biological target: T1, KATP channels (Homo sapiens, UniProt O60706+Q14654); assay: Potassium Channel Assay (FLIPR membrane potential, TE671 cells); format: cell-based; settings: TE671 human medulloblastoma cells, Membrane Potential Assay Dye, room temperature, hyperpolarization from KATP channel opening
T1 construct: TE671 human medulloblastoma cells were obtained from ATCC; host or cells: TE671 human medulloblastoma cells
T1 sequence (O60706 1-1549 isoform O60706-2): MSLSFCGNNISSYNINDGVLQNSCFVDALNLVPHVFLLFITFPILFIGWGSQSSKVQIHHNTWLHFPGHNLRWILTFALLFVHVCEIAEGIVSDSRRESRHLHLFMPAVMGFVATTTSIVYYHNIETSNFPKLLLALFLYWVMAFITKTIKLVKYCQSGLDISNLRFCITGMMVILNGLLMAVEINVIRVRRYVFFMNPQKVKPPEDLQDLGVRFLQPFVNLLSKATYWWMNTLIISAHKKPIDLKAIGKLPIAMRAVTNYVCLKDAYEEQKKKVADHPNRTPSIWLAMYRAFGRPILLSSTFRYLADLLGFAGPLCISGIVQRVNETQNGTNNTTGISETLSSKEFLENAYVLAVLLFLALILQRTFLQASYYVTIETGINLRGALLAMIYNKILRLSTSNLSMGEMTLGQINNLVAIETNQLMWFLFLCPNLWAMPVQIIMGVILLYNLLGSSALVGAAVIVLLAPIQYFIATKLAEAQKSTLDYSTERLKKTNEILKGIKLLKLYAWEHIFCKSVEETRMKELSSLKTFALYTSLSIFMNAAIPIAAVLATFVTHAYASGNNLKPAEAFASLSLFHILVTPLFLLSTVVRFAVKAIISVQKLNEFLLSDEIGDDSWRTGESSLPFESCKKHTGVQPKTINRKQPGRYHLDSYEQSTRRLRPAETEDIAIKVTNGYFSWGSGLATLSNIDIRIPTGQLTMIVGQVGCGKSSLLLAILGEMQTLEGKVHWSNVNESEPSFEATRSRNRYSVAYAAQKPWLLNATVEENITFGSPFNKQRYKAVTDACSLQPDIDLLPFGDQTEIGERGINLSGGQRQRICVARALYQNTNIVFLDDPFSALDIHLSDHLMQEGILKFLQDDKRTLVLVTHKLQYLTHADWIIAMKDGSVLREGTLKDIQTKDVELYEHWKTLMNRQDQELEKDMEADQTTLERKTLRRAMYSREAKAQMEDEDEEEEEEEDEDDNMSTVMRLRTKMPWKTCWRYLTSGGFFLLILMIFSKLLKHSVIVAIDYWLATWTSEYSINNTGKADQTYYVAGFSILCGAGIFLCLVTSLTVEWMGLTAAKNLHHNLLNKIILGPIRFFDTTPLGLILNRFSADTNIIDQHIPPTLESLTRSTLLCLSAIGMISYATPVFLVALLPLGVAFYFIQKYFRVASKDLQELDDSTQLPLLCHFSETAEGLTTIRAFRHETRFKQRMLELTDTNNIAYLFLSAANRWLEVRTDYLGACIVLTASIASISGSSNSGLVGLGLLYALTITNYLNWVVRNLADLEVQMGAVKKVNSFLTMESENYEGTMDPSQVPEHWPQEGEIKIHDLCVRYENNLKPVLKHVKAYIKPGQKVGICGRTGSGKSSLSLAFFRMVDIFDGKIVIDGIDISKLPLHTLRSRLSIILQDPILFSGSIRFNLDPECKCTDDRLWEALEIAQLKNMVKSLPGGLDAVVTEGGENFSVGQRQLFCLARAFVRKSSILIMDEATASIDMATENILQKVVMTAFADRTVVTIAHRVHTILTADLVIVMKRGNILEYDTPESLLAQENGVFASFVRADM
T1 sequence (Q14654 whole entry): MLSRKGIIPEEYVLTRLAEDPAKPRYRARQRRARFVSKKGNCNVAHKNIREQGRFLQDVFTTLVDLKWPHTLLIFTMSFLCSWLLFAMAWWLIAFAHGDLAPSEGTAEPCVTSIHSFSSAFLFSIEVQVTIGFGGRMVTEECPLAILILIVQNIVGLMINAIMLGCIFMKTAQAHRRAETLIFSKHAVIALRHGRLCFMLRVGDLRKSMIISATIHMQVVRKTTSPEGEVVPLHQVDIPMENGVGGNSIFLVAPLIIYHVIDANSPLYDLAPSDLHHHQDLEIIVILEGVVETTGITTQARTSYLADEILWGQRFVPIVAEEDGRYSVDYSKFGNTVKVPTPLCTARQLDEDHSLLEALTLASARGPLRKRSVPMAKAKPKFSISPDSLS
Method: TE671 human medulloblastoma cells were obtained from ATCC and grown in Dulbecco's modified Eagle's medium (DMEM) supplemented with 10% fetal bovine serum, 100 U/ml penicillin and 100 U/ml streptomycine.
The day before testing, the cells were plated in black 96-well plates at 50K/well. On the day of testing, the growth media was removed, then 100 μl of FLIPR buffer (20 mM HEPES, 120 mM NaCl, 2 mM KCl, 2 mM CaCl2, 1 mM MgCl2, 5 mM Glucose) and 100 μl of Membrane Potential Assay Dye (Molecular Devices) dissolved in FLIPR buffer were added to each well. The cells were incubated at room temperature for 15 to 30 min.
The effect of test compounds on KATP channels were evaluated on a fluorometric imaging plate reader (FLIPR, Molecular Devices) at room temperature. After a baseline period, 50 μl of 5× stock solution of test compound prepared in FLIPR buffer was added and fluorescent change was monitored for 3 minutes. After this reading, glyburide, a KATP channel blocker, was added to a final concentration of 5 μM to check the specificity of the test compound as a KATP channel openers. Hyperpolarization resulting from KATP channel opening was observed as a decrease in fluorescent intensity.
Representative compounds of the present invention were tested according to the procedure described above, with results as listed in Table 7, below.

Row | SMILES | EC50 [µM]
1 | CC1(C)Oc2ccc(S(=O)(=O)c3cccc(F)c3)cc2[C@@H](n2oc3cc(Cl)ccc3c2=O)[C@@H]1O [Compound 100, 4R-6-Chloro-2-[6-(3-fluoro-benzenesulfonyl)-3S-hydroxy-2,2-dimethyl-chroman-4-yl]-R-benzo[d]isoxazol-3-one] | 1.95
2 | CC1(C)Oc2ccc(C#N)cc2[C@@H](S(=O)(=O)c2nc3cc(Cl)ccc3o2)[C@@H]1O (racemic) [Compound 17, 4-(5-Chloro-benzooxazole-2-sulfonyl)-3-hydroxy-2,2-dimethyl-chroman-6-carbonitrile] | 6.77
3 | CC1(C)Oc2ccc(C#N)cc2[C@@H](Oc2noc3ccccc23)[C@@H]1O [Compound 23, (3S,4R)-4-(Benzo[d]isoxazol-3-yloxy)-3-hydroxy-2,2-dimethyl-chroman-6-carbonitrile] | 6.94
4 | CC1(C)Oc2cc(Cl)c(Cl)cc2[C@@H](Nc2noc3ccc(Cl)cc23)[C@@H]1O [Compound 91, 6,7-Dichloro-4R-(5-chloro-benzo[d]isoxazol-3-ylamino)-2,2-dimethyl-chroman-3S-ol] | 24.8
5 | COc1ccc(S(=O)(=O)c2ccc3c(c2)[C@@H](n2oc4cc(Cl)ccc4c2=O)[C@H](O)C(C)(C)O3)cc1 [Compound 98, 6-Chloro-2-[3S-hydroxy-6-(4-methoxy-benzenesulfonyl)-2,2-dimethyl-chroman-4-yl]-4R-benzo[d]isoxazol-3-one] | 7.33
6 | CCN(CC)S(=O)(=O)c1ccc2c(c1)[C@@H](Nc1noc3cc(Cl)ccc13)[C@H](O)C(C)(C)O2 [Compound 81, 4R-(6-Chloro-benzo[d]isoxazol-3-ylamino)-3S-hydroxy-2,2-dimethyl-chroman-6-sulfonic acid diethylamide] | 13.6
7 | CC1(C)Oc2ccc(S(=O)(=O)c3ccc(Cl)cc3)cc2[C@@H](n2oc3cc(Cl)ccc3c2=O)[C@@H]1O [Compound 102, 6-Chloro-2-[6-(4-chloro-benzenesulfonyl)-3S-hydroxy-2,2-dimethyl-chroman-4-yl]-R-benzo[d]isoxazol-3-one] | 7.99
8 | CC1(C)Oc2ccncc2[C@@H](Nc2nc3cc(Cl)ccc3o2)[C@@H]1O (racemic) [Compound 107, 4-(5-Chloro-benzoxazol-2-ylamino)-2,2-dimethyl-3,4-dihydro-2H-pyrano[3,2-c]pyridin-3-ol] | > 30
9 | CC1(C)Oc2ccc(C#N)cc2[C@@H](NP(C)(=O)c2ccccc2)[C@@H]1O (stereo partly drawn) [Compound 28] | 18.6
10 | CC1(C)Oc2ccc(S(=O)(=O)c3ccccc3)cc2[C@@H](n2oc3cc(Cl)ccc3c2=O)[C@@H]1O [Compound 78, 2-(6-Benzenesulfonyl-3S-hydroxy-2,2-dimethyl-chroman-4-yl)-6-chloro-4R-benzo[d]isoxazol-3-one] | 0.1
11 | CC1(C)Oc2ccncc2[C@@H](Oc2ccn(-c3ccc(Cl)cc3)n2)[C@@H]1O (racemic) [Compound 109, 4-[1-(4-Chloro-phenyl)-1H-pyrazol-3-yloxy]-2,2-dimethyl-3,4-dihydro-2H-pyrano[3,2-c]pyridin-3-ol] | 26.4
12 | CC1(C)Oc2ccc(C#N)cc2[C@@H](N2CC3(CCCCC3)CC2=O)[C@@H]1O [Compound 34, 3S-Hydroxy-2,2-dimethyl-4R-(3-oxo-2-aza-spiro[4.5]dec-2-yl)-chroman-6-carbonitrile] | 21.4
13 | CC1(C)Oc2ccc(C#N)cc2[C@@H](Oc2nsc3ccccc23)[C@@H]1O (racemic) [Compound 20, 4-(Benzo[d]isothiazol-3-yloxy)-3-hydroxy-2,2-dimethyl-chroman-6-carbonitrile] | 16.1
14 | CCN(CC)S(=O)(=O)c1ccc2c(c1)[C@@H](Nc1noc3ccc(Cl)cc13)[C@H](O)C(C)(C)O2 (racemic) [Compound 80, 4R-(5-Chloro-benzo[d]isoxazol-3-ylamino)-3S-hydroxy-2,2-dimethyl-chroman-6-sulfonic acid diethylamide] | > 30
15 | CC1(C)Oc2cc(Cl)c(Cl)cc2[C@@H](Oc2noc3cc(Cl)ccc23)[C@@H]1O [Compound 93, 6,7-Dichloro-4R-(6-chloro-benzo[d]isoxazol-3-yloxy)-2,2-dimethyl-chroman-3S-ol] | 20.5
16 | CC1(C)Oc2ccc(C#N)cc2[C@@H](Nc2nc3cc(F)ccc3s2)[C@@H]1O (racemic) [Compound 5, 4-(5-Fluoro-benzothiazol-2-ylamino)-3-hydroxy-2,2-dimethyl-chroman-6-carbonitrile] | 8.44
17 | CC1(C)Oc2ccc(C#N)cc2[C@@H](SC2=NCCc3ccccc32)[C@@H]1O [Compound 42, 4R-(3,4-Dihydro-isoquinolin-1-ylsulfanyl)-3S-hydroxy-2,2-dimethyl-chroman-6-carbonitrile] | > 30

Row | SMILES | EC50 [µM]
18 | CC1(C)Oc2ccc(C#N)cc2[C@@H](Oc2noc3cc(Cl)ccc23)[C@@H]1O [Compound 22, 4R-(6-Chloro-benzo[d]isoxazol-3-yloxy)-3S-hydroxy-2,2-dimethyl-chroman-6-carbonitrile] | 0.26
19 | CC1(C)Oc2ccc(S(=O)(=O)c3cccc(F)c3)cc2[C@@H](Oc2noc3cc(Cl)ccc23)[C@@H]1O [Compound 99, 4R-(6-Chloro-benzo[d]isoxazol-3-yloxy)-6-(3-fluoro-benzenesulfonyl)-2,2-dimethyl-chroman-3S-ol] | 21.5
20 | CCN(CC)S(=O)(=O)c1ccc2c(c1)[C@@H](Oc1noc3ccc(Cl)cc13)[C@H](O)C(C)(C)O2 [Compound 85, 4R-(5-Chloro-benzo[d]isoxazol-3-yloxy)-3S-hydroxy-2,2-dimethyl-chroman-6-sulfonic acid diethylamide] | > 30
21 | CCN(CC)C(=O)c1ccc2c(c1)[C@@H](Oc1noc3cc(Cl)ccc13)[C@H](O)C(C)(C)O2 [Compound 90, 4R-(6-Chloro-benzo[d]isoxazol-3-yloxy)-3S-hydroxy-2,2-dimethyl-chroman-6-carboxylic acid diethylamide] | > 30
22 | CC1(C)Oc2ccc(S(=O)(=O)c3ccccc3)cc2[C@@H](Oc2noc3cc(Cl)ccc23)[C@@H]1O [Compound 77, 6-Benzenesulfonyl-4R-(6-chloro-benzo[d]isoxazol-3-yloxy)-2,2-dimethyl-chroman-3S-ol] | > 30
23 | CC1(C)Oc2ccc(C#N)cc2[C@@H](NS(=O)(=O)c2cccc(Cl)c2)[C@@H]1O [Compound 66, (3S,4R)-3-Chloro-N-(6-cyano-3-hydroxy-2,2-dimethyl-chroman-4-yl)-benzenesulfonamide] | 1.54
24 | COc1ccc(S(=O)(=O)c2ccc3c(c2)[C@@H](Oc2noc4cc(Cl)ccc24)[C@H](O)C(C)(C)O3)cc1 [Compound 97, 4R-(6-Chloro-benzo[d]isoxazol-3-yloxy)-6-(4-methoxy-benzenesulfonyl)-2,2-dimethyl-chroman-3S-ol] | > 30
25 | CC1(C)Oc2ccc(C#N)cc2[C@@H](Nc2nc(=O)c3cc(Cl)ccc3[nH]2)[C@@H]1O (racemic) [Compound 7, 4-(6-Chloro-4-oxo-1,4-dihydro-quinazolin-2-ylamino)-3-hydroxy-2,2-dimethyl-chroman-6-carbonitrile] | 2.29
26 | CC1(C)Oc2ccc(C#N)cc2[C@@H](Nc2noc3cc(Cl)ccc23)[C@@H]1O [Compound 67, (3S,4R)-4-(6-Chloro-benzo[d]isoxazol-3-ylamino)-3-hydroxy-2,2-dimethyl-chroman-6-carbonitrile] | 6.18
27 | CC1(C)Oc2ccc(C#N)cc2[C@@H](Sc2nc3cc(OC(F)F)ccc3[nH]2)[C@@H]1O (racemic) [Compound 16, 4-(5-Difluoromethoxy-1H-benzoimidazol-2-ylsulfanyl)-3-hydroxy-2,2-dimethyl-chroman-6-carbonitrile] | > 30
28 | COc1ccc(S(=O)(=O)c2ccc3c(c2)[C@@H](Nc2noc4ccc(Cl)cc24)[C@H](O)C(C)(C)O3)cc1 [Compound 104, 4R-(5-Chloro-benzo[d]isoxazol-3-ylamino)-6-(4-methoxy-benzenesulfonyl)-2,2-dimethyl-chroman-3S-ol] | 25.7
29 | CC1(C)Oc2ccncc2[C@@H](Nc2nc3cc(Cl)ccc3s2)[C@@H]1O (racemic) [Compound 106, 4-(5-Chloro-benzothiazol-2-ylamino)-2,2-dimethyl-3,4-dihydro-2H-pyrano[3,2-c]pyridin-3-ol] | 19.5
30 | CC1(C)Oc2ccncc2[C@@H](n2nc(-c3ccc(Cl)cc3)ccc2=O)[C@@H]1O (racemic) [Compound 112, 6-(4-Chloro-phenyl)-2-(3-hydroxy-2,2-dimethyl-3,4-dihydro-2H-pyrano[3,2-c]pyridin-4-yl)-2H-pyridazin-3-one] | 29.8
31 | CC1(C)Oc2cc(Cl)c(Cl)cc2[C@@H](n2oc3cc(Cl)ccc3c2=O)[C@@H]1O [Compound 94, 6-Chloro-2-(6,7-dichloro-3S-hydroxy-2,2-dimethyl-chroman-4-yl)-R-benzo[d]isoxazol-3-one] | 10.3
32 | CC1(C)Oc2ccc(S(=O)(=O)N3CCCCC3)cc2[C@@H](Oc2noc3cc(Cl)ccc23)[C@@H]1O [Compound 83, 4R-(6-Chloro-benzo[d]isoxazol-3-yloxy)-2,2-dimethyl-6-(piperidine-1-sulfonyl)-chroman-3S-ol] | > 30
33 | CC1(C)Oc2ccc(S(=O)(=O)c3cccc(F)c3)cc2[C@@H](Nc2noc3ccc(Cl)cc23)[C@@H]1O [Compound 103, 4R-(5-Chloro-benzo[d]isoxazol-3-ylamino)-6-(3-fluoro-benzenesulfonyl)-2,2-dimethyl-chroman-3S-ol] | 7.77
